Data: US7390820B2, “Substituted quinolinone derivatives and methods of use” (Amgen Inc., priority 2003, dated 2008)

Test system: Human Umbilical Vein Endothelial cells
Experiment: HUVEC proliferation assay (VEGF-stimulated)
Assay type: cell-based
Conditions: 72 h, CyQuant, read-out: inhibition of VEGF-stimulated HUVEC proliferation
Method: Human Umbilical Vein Endothelial cells are purchased from Clonetics, Inc., as cryopreserved cells harvested from a pool of donors. These cells, at passage 1, are thawed and expanded in EBM-2 complete medium, until passage 2 or 3. The cells are trypsinized, washed in DMEM+10% FBS+antibiotics, and spun at 1000 rpm for 10 min. Prior to centrifugation of the cells, a small amount is collected for a cell count. After centrifugation, the medium is discarded, and the cells are resuspended in the appropriate volume of DMEM+10% FBS+antibiotics to achieve a concentration of 3×10^5 cells/mL. Another cell count is performed to confirm the cell concentration. The cells are diluted to 3×10^4 cells/mL in DMEM+10% FBS+antibiotics, and 100 μL of cells are added to a 96-well plate. The cells are incubated at 37° C. for 22 h.
Prior to the completion of the incubation period, compound dilutions are prepared. Five-point, five-fold serial dilutions are prepared in DMSO, at concentrations 400-fold greater than the final concentrations desired. 2.5 μL of each compound dilution are diluted further in a total of 1 mL DMEM+10% FBS+antibiotics (400× dilution). Medium containing 0.25% DMSO is also prepared for the 0 μM compound sample. At the 22 h timepoint, the medium is removed from the cells, and 100 μL of each compound dilution is added. The cells are incubated at 37° C. for 2-3 h.
During the compound pre-incubation period, the growth factors are diluted to the appropriate concentrations. Solutions of DMEM+10% FBS+antibiotics, containing either VEGF or bFGF at the following concentrations: 50, 10, 2, 0.4, 0.08, and 0 ng/mL are prepared. […]
At the completion of the 72 h incubation period, the medium is removed, and the cells are washed twice with PBS. […] The cells are thawed and analyzed using the CyQuant fluorescent dye (Molecular Probes C-7026), following the manufacturer's recommendations. The plates are read on a Victor/Wallac 1420 workstation at 485 nm/530 nm (excitation/emission). Raw data are collected and analyzed using a 4-parameter fit equation in XLFit. IC50 values are then determined.

Compound	IC50 [nM]
CC(C)(C)c1ccc(-n2ncc3cccc(NCc4ccncc4)c3c2=O)cc1 [Example 1, 2-(4-(1,1-Dimethylethyl)phenyl)-8-((4-pyridinylmethyl)amino)-1(2H)-phthalazinone]	< 500
CC(C)(C)c1ccc(N2CCc3cccc(NCc4ccncc4)c3C2=O)cc1 [Example 3, 2-(4-(1,1-Dimethylethyl)phenyl)-8-((4-pyridinylmethyl)amino)-3,4-dihydro-1(2H)-isoquinolinone]	< 500
CC(C)(C)c1ccc(-n2ncc3cccc(NCc4c[nH]c5ncccc45)c3c2=O)cc1 [Example 2, 2-(4-(1,1-Dimethylethyl)phenyl)-8-((1H-pyrrolo[2,3-b]pyridin-3-ylmethyl)amino)-1(2H)-phthalazinone]	< 500
